Data taken from patent US6689753B1, “β sheet breaker peptide analogs that inhibit β pleated sheet formation in amyloid β-peptide” (Axonyx, Inc., priority 1999, dated 2004).
Non-standard residues stand in square brackets, D forms with d. Residues, ends and D or L forms follow the SMILES beside them.

Tests used:
[1] = Peptide stability in rat plasma after i.v. bolus injection (radio-iodinated peptide, TCA precipitation, paper chromatography); format: in vivo; conditions: 15 minutes after i.v. injection
Protocol: d) Chirality changes. Replacement of the natural L-residue by the D-enantiomers dramatically increases resistance to proteolytic degradation. […] Indeed, approximately 90% of iAβ1 was degraded within minutes after intravenous injection. […] For detection, the peptide was radio-iodinated using standard procedures. Peptide stability was evaluated after i.v bolus injection in rats by precipitation with trichloroacetic acid. Quantitation of the intact peptide was also done by paper chromatography. […] In addition to the latter, D-residue are used after each proline amino acid, since it has been reported that a frequent endopeptidase cleavage site is after this residue by an enzyme known as prolylendopeptidase.

[2] = In vitro assay of peptide stability in fresh human plasma; format: in vitro ADME
Protocol: One of the major drawbacks for the use of peptides as drugs is their rapid proteolytic degradation in biological fluids and tissues. In in vitro experiments, iAβ5, (Seq LPFFD- also depicted as Leu Pro Phe Phe Asp herein) degraded very quickly in vitro after incubation with fresh human plasma. […] Since it was not possible to identify any metabolic fragments as a result of the proteolytic digestion, it seems likely that the degradation is mainly done by unspecific exopeptidases. This conclusion is supported by the finding that protection of amino- and carboxy-terminus of the peptide by acetylation and amidation, respectively, (to form Ac-iAβ5-Am—also depicted as Ac-Leu Pro Phe Phe Asp-Am herein) dramatically increases the stability of the peptide in vitro.
In vitro assays of peptide stability. Peptides were prepared as a 1 μg/μl solution in water. 20 μl of the peptide solution was diluted in 80 μl of fresh human plasma. The solution was incubated at 37° C. for different time periods and the reaction was stopped by adding a complete cocktail of protease inhibitors. The bulk of the plasma proteins (none of the peptide) were precipitated in cold methanol (mix/MeOH, 4/5, v/v) for one hour at −20° C. […] The peak area corresponding to the intact peptide was measured and compared with an equivalent sample incubated without plasma.

[3] = In vitro metabolism in human liver microsomes; format: in vitro ADME; conditions: one hour of incubation at 37°, read-out: peptide remained intact
[4] = In vitro metabolism in rat liver microsomes; format: in vitro ADME; conditions: one hour of incubation at 37°, read-out: peptide remained intact
[5] = target: Aβ1-42 amyloid deposits (Homo sapiens, UniProt P05067); conditions: cited from earlier work
Chain of Aβ1-42 amyloid deposits (P05067 672-713): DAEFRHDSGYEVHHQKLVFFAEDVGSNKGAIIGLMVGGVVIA

[6] = test system: Aβ; conditions: prior art; cited from earlier work
[7] = test system: neuronal death induced by oligomeric Aβ; conditions: cell culture, prior art; cited from earlier work
[8] = target: PrP (Homo sapiens, UniProt P04156); conditions: cited from earlier work
[9] = target: Aβ1-40 (Homo sapiens, UniProt P05067); test: In vitro amyloid formation assay, thioflavine T fluorescence; format: biochemical; conditions: Aβ incubated with peptide, ThT fluorescence, FIG. 5a
Chain of Aβ1-40 (P05067 672-711): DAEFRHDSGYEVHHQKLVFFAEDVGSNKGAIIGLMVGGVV

Compound: CC[C@@H](C)[C@@H](NC(=O)[C@H]1CCCN1C(=O)[C@H](NC(=O)[C@H]1CCCN1C(=O)[C@@H](Cc1ccc(O)cc1)NC(=O)[C@@H](Cc1ccccc1)NC(=O)[C@H]1CCCN1C(=O)[C@@H](CC(C)C)NC(=O)[C@@H](CC(=O)O)NC(=O)[C@H](N)CCCNC(=N)N)C(C)C)C(=O)N[C@H](CC(=O)O)C(=O)O (H-[dR][dD][dL][dP][dF][dY][dP][dV][dP][dI][dD]-OH; N-terminus and C-terminus assumed)
- degradation in the plasma after injection [1]: virtually no degradation

Compound: CC(=O)N[C@@H](CC(C)C)C(=O)N1CCC[C@H]1C(=O)N[C@@H](Cc1ccccc1)C(=O)N[C@@H](Cc1ccccc1)C(=O)N[C@@H](CC(=O)O)C(N)=O [Ac-iAβ5-Am, Ac-Leu Pro Phe Phe Asp-Am] (Ac-LPFFD-NH2)
- period the peptide remained stable in human plasma ([2]; human plasma, FIG. 4b): more than 24 hours
- remaining at 1 h [3]: 81.5%
- remaining at 1 h [4]: 76.3%

Compound: CC(C)C[C@H](N)C(=O)N1CCC[C@H]1C(=O)N[C@@H](Cc1ccccc1)C(=O)N[C@@H](Cc1ccccc1)C(=O)N[C@@H](CC(=O)O)C(=O)O [iAβ5, Leu Pro Phe Phe Asp] (H-LPFFD-OH)
- half-life at 0.2 μg/μl ([2]; fresh human plasma, 37° C., FIG. 4a, read-out: time in which fifty percent of the peptide disappeared in plasma): ~5 min
- cerebral Aβ accumulation and deposition of fibrillar amyloid-like lesions ([5]; co-injection with Aβ1-42, rat brain, prior art): decreased cerebral Aβ accumulation and completely blocked the deposition of fibrillar amyloid-like lesions
- inhibition of amyloid plaque formation ([5]; co-injection with Aβ1-42, rat): 50%
- dissolution of preformed deposits ([5]; i.c. injection in animals already containing amyloid plaques): 67%
- inhibition of amyloid formation and dissolution of preformed fibrils in vitro [6]: inhibit peptide conformational changes that result in amyloid formation and also dissolved preformed fibrils
- prevention of neuronal death [7]: capable of preventing the neuronal death

Compound: Asp Ala Pro Ala Ala Pro Ala Gly Pro ala Val Pro Val [iPrP13]
- inhibitory activity on PrP conformational change among a set of β-sheet breaker peptides [8]: showed the greatest activity

Compound: Aβ18-21: short Aβ fragment (VFFA; Amyloid-beta protein 42; UniProt P05067 689-692, looked up, fragment)
- activity in inhibiting amyloid formation (fibrillogenesis) [9]: no effect on fibrillogenesis or slightly increased amyloid formation

Compound: GYLTVAAVFRG [CP2, unrelated control peptide]
- activity in inhibiting amyloid formation (fibrillogenesis) [9]: no effect on fibrillogenesis or slightly increased amyloid formation

Compound: ISEVKMDAEF [CP10, unrelated control peptide]
- activity in inhibiting amyloid formation (fibrillogenesis) [9]: no effect on fibrillogenesis or slightly increased amyloid formation

Compound: RDLPFYPVPID [iAβ1]
- inhibition of amyloid formation and dissolution of preformed fibrils in vitro [6]: inhibit peptide conformational changes that result in amyloid formation and also dissolved preformed fibrils

Compound: VHVSEEGTEPA [CP1, unrelated control peptide]
- activity in inhibiting amyloid formation (fibrillogenesis) [9]: no effect on fibrillogenesis or slightly increased amyloid formation
